# From patent publication US4129648A, “Method for reducing endogenous prostaglandin synthesis” (priority 1977, dated 1978)
# Structures can show the parent of a compound that is named as a salt.
# Assays:
# [1] = system: bronchoconstriction induced by sodium arachidonate; test: Dynamic compliance and airway resistance in the anaesthetized guinea pig challenged with sodium arachidonate; type: in vivo
# Experimental: (§1) The ability of Cohn subfraction IV4 and haptoglobin to reduce the transient hypertension caused by administration of sodium arachidonate in the guinea pig was also measured. These tests were carried out as follows.
# (§2) Male albino guinea pigs weighing 400-600 g each (Dunkin Hartley strain) were anesthetized by administration of sodium pentobarbitone, 60 mg/kg intraperitoneally. The trachea was cannulated for artificial ventilation by a Starling pump (5-8 ml at 72 strokes per minute) via a Fleisch 0000 pneumatachograph. The difference in pressure across this device was measured with a Grass differential pressure transducer. […] Transpulmonary pressure (TPP) was measured with another differential pressure transducer via side arms to the thoracic cavity and the tracheal cannula. The signals for low and TPP were applied to the analogue computer so that there was approximately 180° phase difference. The computer derived the dynamic compliance and resistance from the in-going signals. Drugs were administered intravenously via the external jugular vein. A 1 mg/ml solution of sodium arachidonate was prepared as follows. […] These doses were given at 30 minute intervals to produce a large but submaximal bronchoconstriction. After 2 or 3 similar responses to the same dose of sodium arachidonate had been obtained, the test substance in saline (0.1 to 1 ml) was injected intravenously. At various times thereafter, a challenge was given.
# [2] = system: transient hypertension induced by sodium arachidonate; test: Mean arterial blood pressure in the anaesthetized guinea pig challenged with sodium arachidonate; type: in vivo
# Experimental: as §1, §2
# The left carotid artery was cannulated for recording blood pressure with a Grass pressure transducer (Consolidated Dynamics 0.75 cm Hg type 4L221) linked to a Devices twin channel polygraph via a CD2D pre-amplifier. Electrocardiograms were recorded using a DC6 pre-amplifier linked to the Devices polygraph.
# [3] = dose 0.03 mg/kg intravenously, challenge 45 sec after treatment
# [4] = dose 0.10 mg/kg intravenously, challenge 45 sec after treatment
# [5] = dose 15 mg/kg intravenously, challenge 45 sec after treatment
# [6] = dose 15 mg/kg intravenously, challenge 10 min after treatment
# [7] = dose 15 mg/kg intravenously, challenge 30 min after treatment
# [8] = dose 15 mg/kg intravenously, challenge 60 min after treatment
# [9] = dose 15 mg/kg intravenously, challenge 90 min after treatment
# [10] = dose 15 mg/kg intravenously, challenge 120 min after treatment
# [11] = dose 2 mg/kg intravenously, challenge 45 sec after treatment
# [12] = dose 2 mg/kg intravenously, challenge 30 min after treatment
# [13] = dose 5 mg/kg intravenously, challenge 45 sec after treatment
# [14] = dose 20 mg/kg intravenously, challenge 45 sec after treatment
# [15] = dose 50 mg/kg intravenously, challenge 45 sec after treatment
# [16] = dose 100 mg/kg intravenously, challenge 45 sec after treatment
molecule,measurement,setting,value
"COc1ccc2c(c1)c(CC(=O)O)c(C)n2C(=O)c1ccc(Cl)cc1 [Indomethacin, indomethacin sodium salt]",Mean % Inhibition (± s.e.) of educed dynamic lung compliance,[1]; [3],58.7 ± 15.7%
same,Mean % Inhibition (± s.e.) of increased airway resistance,[1]; [3],47.0 ± 15.8%
same,Mean % Inhibition (± s.e.) of educed dynamic lung compliance,[1]; [4],85.5 ± 14.5%
same,Mean % Inhibition (± s.e.) of increased airway resistance,[1]; [4],90.5 ± 9.5%
same,Mean % Inhibition (± s.e.) of hypertension,[2]; [3],65.0 ± 2.1%
"C[C@]12CCC(=O)C=C1CC[C@@H]1[C@@H]2[C@@H](O)C[C@@]2(C)[C@H]1CC[C@]2(O)C(=O)COC(=O)CCC(=O)O [Hydrocortisone, hydrocortisone sodium succinate]",Mean % Inhibition (± s.e.) of educed dynamic lung compliance,[1]; [5],15.0 ± 7.5%
same,Mean % Inhibition (± s.e.) of increased airway resistance,[1]; [5],24.0 ± 1.5%
same,Mean % Inhibition (± s.e.) of educed dynamic lung compliance,[1]; [6],21.3 ± 4.2%
same,Mean % Inhibition (± s.e.) of increased airway resistance,[1]; [6],24.3 ± 6.8%
same,Mean % Inhibition (± s.e.) of educed dynamic lung compliance,[1]; [7],49.0 ± 9.7%
same,Mean % Inhibition (± s.e.) of increased airway resistance,[1]; [7],46.2 ± 5.7%
same,Mean % Inhibition (± s.e.) of educed dynamic lung compliance,[1]; [8],44.0 ± 6.0%
same,Mean % Inhibition (± s.e.) of increased airway resistance,[1]; [8],61.0 ± 3.0%
same,Mean % Inhibition (± s.e.) of educed dynamic lung compliance,[1]; [9],25.0%
same,Mean % Inhibition (± s.e.) of increased airway resistance,[1]; [9],54.0%
same,Mean % Inhibition (± s.e.) of educed dynamic lung compliance,[1]; [10],12.0%
same,Mean % Inhibition (± s.e.) of increased airway resistance,[1]; [10],17.0%
same,Mean % Inhibition (± s.e.) of hypertension,[2]; [5],35.0 ± 2.0%
same,Mean % Inhibition (± s.e.) of hypertension,[2]; [6],48.0 ± 18.0%
same,Mean % Inhibition (± s.e.) of hypertension,[2]; [7],25.0 ± 25.0%
same,Mean % Inhibition (± s.e.) of hypertension,[2]; [8],25.0%
"CC(=O)Oc1ccccc1C(=O)O [Aspirin, aspirin calcium salt]",Mean % Inhibition (± s.e.) of educed dynamic lung compliance,[1]; [11],71.5 ± 6.5%
same,Mean % Inhibition (± s.e.) of increased airway resistance,[1]; [11],85.5 ± 3.5%
same,Mean % Inhibition (± s.e.) of educed dynamic lung compliance,[1]; [12],81.5 ± 7.5%
same,Mean % Inhibition (± s.e.) of increased airway resistance,[1]; [12],91.0 ± 9.0%
Haptoglobin: obtained from human plasma Cohn subfraction IV4 by ammonium sulphate purification and DEAE cellulose chromatography,Mean % Inhibition (± s.e.) of educed dynamic lung compliance,[1]; [13],27.4 ± 5.3%
same,Mean % Inhibition (± s.e.) of increased airway resistance,[1]; [13],31.8 ± 4.7%
same,Mean % Inhibition (± s.e.) of educed dynamic lung compliance,[1]; [14],34.3 ± 7.4%
same,Mean % Inhibition (± s.e.) of increased airway resistance,[1]; [14],44.3 ± 6.7%
same,Mean % Inhibition (± s.e.) of educed dynamic lung compliance,[1]; [15],49.0 ± 3.2%
same,Mean % Inhibition (± s.e.) of increased airway resistance,[1]; [15],67.7 ± 0.3%
same,Mean % Inhibition (± s.e.) of educed dynamic lung compliance,[1]; [16],64.0 ± 0%
same,Mean % Inhibition (± s.e.) of increased airway resistance,[1]; [16],67.0 ± 8.0%
same,Mean % Inhibition (± s.e.) of hypertension,[2]; [13],34.5 ± 13.9%
same,Mean % Inhibition (± s.e.) of hypertension,[2]; [14],83.5 ± 16.5%
same,Mean % Inhibition (± s.e.) of hypertension,[2]; [15],90.0 ± 10.0%
same,Mean % Inhibition (± s.e.) of hypertension,[2]; [16],73.0%
